The test system of one assay is hippocampal neurons. The experiment in a line: Synaptic density (vGLUT1/PSD95) in cultured hippocampal neurons. The assay is classed as cell-based, mouse. As to the method:
(§1) Immunocytochemistry. […] NIS element software was used for image analysis. “Objective Count” dialog was used for intensity measurement. […] The overlapped dots represent synapses.
Primary hippocampal neuron culture. Hippocampal neuron cultures were prepared as previously described (15). In brief, mouse hippocampi were dissected from postnatal day 0-1 pups in cold HBSS. Cells were dissociated by using 0.025% trypsin at 37° C. for 15 minutes, followed by 10 times homogenization in ice cold DMEM. Dissociated cells were then passed through a 100 μm cell strainer (Corning) and centrifuged for 5 minutes at 210×g. The pellet was gently resuspended in neuron culture medium (Neurobasal A with 2% B27 supplement, 0.5 mM L-glutamine, Invitrogen) and plated on poly-D-lysine (Sigma-Aldrich) coated Lab-Tek chamber slides (Nunc, 177445) with appropriate densities.
Agonist treatment on primary cultured neurons. At 14 days in vitro (DIV14) hippocampal neurons were exposed to the synthetic growth hormone secretagogue receptor agonist MK0677 (Tocris, #5272, 1.5 μM) the dopamine D1-like receptor agonist SKF81297 (Sigma-Aldrich, #S143, 2 μM) or a mixture of MK0677 and SKF81297 for 5 minutes. The exposure was followed by immunostaining to examine the effects of Ghsr1α/Drd1 co-activation on Aβ induced synaptic loss or Ghsr1α/Drd1, Aβ/Ghsr1α interaction as described in previous sections.

The target of a further assay is T1, Aβ/Ghsr1α complex (Mus musculus, UniProt Q99P50).
T1 construct: endogenous in cells; host or cells: primary mouse hippocampal neurons; Aβ42 peptide purchased (GenicBio, A-43-T-1000)
T1 sequence (Q99P50 whole entry): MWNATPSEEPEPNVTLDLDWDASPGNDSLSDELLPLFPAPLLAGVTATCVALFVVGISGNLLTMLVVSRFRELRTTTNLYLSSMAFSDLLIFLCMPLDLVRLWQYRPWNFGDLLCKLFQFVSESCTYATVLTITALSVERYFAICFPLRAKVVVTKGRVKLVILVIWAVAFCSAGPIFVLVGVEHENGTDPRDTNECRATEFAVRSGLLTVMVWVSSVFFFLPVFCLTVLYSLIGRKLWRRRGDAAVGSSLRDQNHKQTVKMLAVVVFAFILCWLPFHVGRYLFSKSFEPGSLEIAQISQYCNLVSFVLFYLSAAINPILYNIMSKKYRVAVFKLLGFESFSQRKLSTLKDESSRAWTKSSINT
T1 sequence (Q61616 whole entry, further chain): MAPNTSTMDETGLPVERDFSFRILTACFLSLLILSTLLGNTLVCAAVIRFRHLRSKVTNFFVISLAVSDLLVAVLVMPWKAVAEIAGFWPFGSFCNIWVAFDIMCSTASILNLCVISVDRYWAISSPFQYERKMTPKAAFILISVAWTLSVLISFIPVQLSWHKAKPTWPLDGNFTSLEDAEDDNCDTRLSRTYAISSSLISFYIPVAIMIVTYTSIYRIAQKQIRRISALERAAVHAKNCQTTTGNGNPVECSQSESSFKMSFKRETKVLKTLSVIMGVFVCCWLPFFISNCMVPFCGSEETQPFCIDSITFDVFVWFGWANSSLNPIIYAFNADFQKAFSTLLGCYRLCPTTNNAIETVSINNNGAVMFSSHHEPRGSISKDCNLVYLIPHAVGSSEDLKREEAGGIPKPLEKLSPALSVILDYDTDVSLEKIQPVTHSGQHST
The experiment in a line: Duolink PLA of Aβ/Ghsr1α complex in cultured hippocampal neurons. It counts as cell-based. Particulars: oligomeric Aβ42 1 μM, 24 hours; 1.5 μM MK0677, 2 μM SKF81297, or in combination. The source says:
Duolink In Situ Proximity Ligation Assay (PLA). […] PLA analysis was referred to previous report (66 67). NIH Image J was used for PLA signal quantification.
Agonist treatment on primary cultured neurons. […] The exposure was followed by immunostaining to examine the effects of Ghsr1α/Drd1 co-activation on Aβ induced synaptic loss or Ghsr1α/Drd1, Aβ/Ghsr1α interaction as described in previous sections.

The next assay deals with 5×FAD mice. The experiment in a line: Neurogenesis (DCX staining) in the dentate gyrus. The assay is classed as in vivo, mouse. Particulars: MK0677 1.5 mg/kg, daily i.p., one month. How it is done: as §1
Neurogenesis analysis. Neurogenesis in the hippocampal dentate gyms (DG) area was presented by performing doublecortin (DCX) staining in fixed brain slices as previously described. DCX-positive (DCX^+) cell number was counted manually. The DG area was measured using NIS element software. DCX cell density was calculated by dividing the DCX cell number by the DG area to evaluate neurogenesis.

A further assay concerns patients with AD. Particulars: clinical trial; cited from earlier work.
Assay [1] has as its system hippocampal CA3-CA1 pathway. In words: Long-term potentiation (fEPSP) in hippocampal slices. Particulars: MK0677 1.5 μM, SKF81297 2 μM, alone or in combination.
Description: For electrophysiological experiments, mice were anesthetized with isoflurane and decapitated. […] Slices were allowed to rest for 30 minutes after being transferred to the recording chamber before recordings began. Recordings of local field potentials (LFPs) were performed on an Axon Multiclamp 700B amplifier (Molecular Devices), and data were acquired and analyzed using AxoGraph X (AxoGraph Scientific). A tungsten concentric bipolar microelectrode (World Precision Instruments), and a recording glass electrode (1.5 MS2) filled with recording ACSF, were placed approximately 200 μm apart in the Schaffer collateral-commissural pathway in the CA1 region of the hippocampus. Pulses were delivered in 30 seconds intervals. Before baseline recordings commenced, input-output curves were taken, using 25-150 μA stimulation currents in 25 μA steps. Three sweeps were sampled at each stimulation intensity and averaged to represent the voltage response at each step. Recordings of baseline responses lasted for at least 40 minutes. Stimulation intensity was set to approximately 40% of the minimum intensity required to evoke the maximum response (based on the input-output curve). The stimulation intensity was kept consistent throughout the duration of the experiment. […] LTP was induced using a theta burst stimulation (TBS) protocol consisting of 10 bursts (5 pulses at 100 Hz) repeated at 5 Hz delivered two times 30 seconds apart. After LTP induction, LFPs were recorded for an additional 60 minutes. The slope of the field excitatory postsynaptic potential (fEPSP) was measured in Axograph scientific software and sweeps were averaged in bins of 5 for both the baseline and post LTP induction periods. Changes in LFPs are expressed as percentage change from the averaged baseline values.

SMILES strings stand for the structures.

Consider `CC(C)(N)C(=O)N[C@H](COCc1ccccc1)C(=O)N1CCC2(CC1)CN(S(C)(=O)=O)c1ccccc12` [MK0677], for which, in the assay on hippocampal neurons (oligomeric Aβ42 1 μM, 24 hours, 1.5 μM MK0677, 2 μM SKF81297, or in combination), the “synaptic density / oligomeric Aβ42-induced synapse loss” value is on record as “did not mitigate”. For the same compound, in the assay on hippocampal neurons (without oligomeric Aβ42, MK0677 at doses greater than 1.5 μM, SKF81297 2 μM), the “synaptic density, agonist alone” value was “substantially promoted synaptic formation”. For the same compound, the Aβ/Ghsr1α complex formation result at Aβ/Ghsr1α complex is listed as “not MK0677 or SKF81297 alone”. In the assay with 5×FAD mice, the “DCX+ cells, non-TG saline vs non-TG MK0677” value was “no significant difference”; the “DCX-positive cells in dentate gyri, 5×FAD mice” value is on record as “remarkably augmented number of DCX-positive cells”; the “DCX-positive cells, Ghsr null mice” value was “no response”. In addition, in the assay with patients with AD, the “clinical benefits in patients with AD” value was “failed to show clinical benefits”. The “stimulus-evoked hippocampal LTP in 5×FAD slices” value in assay [1] (slices from 4 month-old 5×FAD mice) was “no effect”. Besides, the “hippocampal LTP in non-Tg slices” value in assay [1] (slices from 4 month-old non-Tg mice) is “no effect”.

(Values after US20220370471A1, “COMPOSITION AND METHOD FOR TREATMENT OF HIPPOCAMPAL SYNAPSE DYSFUNCTION AND COGNITIVE DEFICITS IN ALZHEIMER'S DISEASE” (BOARD OF REGENTS, THE UNIVERSITY OF TEXAS SYSTEM, priority 2019, published 2022).)
